Assay results reported in patent publication US11834431B2, “Crystals of cyclic amine derivative and pharmaceutical use thereof” (Toray Industries, Inc., priority 2016, dated 2023).

What was measured:
[1] = Evaluation of solubility in Japanese Pharmacopoeia test fluids; format: physicochemical; settings: aqueous buffer, thermodynamic from solid; 2nd fluid for disintegration test of the Japanese Pharmacopoeia 16th edition (pH 6.8), 37° C., 30 minutes; read-out: Solubility (37° C.)
Protocol: Form A crystal of compound (I) (100 mg) was weighed into a borosilicate glass vial, and the 1st fluid for disintegration test/1st fluid for dissolution test of the Japanese Pharmacopoeia 16th edition (pH 1.2)(1 mL) or the 2nd fluid for disintegration test of the Japanese Pharmacopoeia 16th edition (pH 6.8)(1 mL) was added in a temperature and humidity test chamber (Amefrec Co., Ltd.; NO DOORα) adjusted to 37° C., followed by stirring. Form B crystal of ethane disulfonate of compound (I) (10 mg) was weighed into a borosilicate glass vial, and the 2nd fluid for disintegration test of the Japanese Pharmacopoeia 16th edition (pH 6.8) (0.1 mL) was added in a temperature and humidity test chamber (Amefrec Co., Ltd.; NO DOORα) adjusted to 37° C., followed by stirring. After 30 minutes, the inside of each vial was visually checked, and it was confirmed that each crystal was completely dissolved.

[2] = Evaluation of hygroscopicity (equilibrium moisture measurement); format: physicochemical; settings: 30° C.
Protocol: Equilibrium moisture measurement was performed on Form A crystal and the amorphous matter of compound (I) under the following conditions using a fully automated symmetric vapor sorption analyzer (TA Instruments Inc.; VTI-SA+). […] The change in appearance was also observed.

[3] = Dissolution of amorphous matter in various solvents (selection of crystallization solvents); format: physicochemical
Protocol: The amorphous matter (10 mg) of compound (I) was weighed into a borosilicate glass vial, each solvent in Table 3 was added at the corresponding amount of solvent added in Table 3, and confirmed whether or not the amorphous matter was dissolved. […] Subsequently, the vial was shaken at room temperature in an airtight state for 7 days. However, no solid precipitated in either case. […] It was therefore judged that they were unsuitable as a crystallization solvent.

[4] = Evaluation of storage stability, Form A crystal versus amorphous matter (HPLC purity); format: physicochemical; settings: airtight state
[5] = tested on: fibromyalgia model rats; assay: Analgesic effect on allodynia in fibromyalgia model rats (von Frey, 50% response threshold); format: in vivo, rat; settings: oral 10 mg/kg, measured 3 hours after administration, Day 7, compared to negative control group
Protocol: The analgesic effect of the crystal of compound (I) or the pharmacologically acceptable salt thereof against fibromyalgia syndrome was evaluated using fibromyalgia model rats (Sluka et al., Journal of Pharmacology and Experimental Therapeutics, 2002, vol. 302, pp. 1146-1150; Nagakura et al., Pain, 2009, vol. 146, pp. 26-33; Sluka et al., Pain, 2009, vol. 146, pp. 3-4). Form A crystal of compound (I) was used as a crystal of compound (I) or the pharmacologically acceptable salt thereof for evaluation.
The above model rats were prepared as follows. In experiments, 6-to 7-week-old SD male rats were used for 5 or 6 cases per group. 100 μL of acidic physiological saline adjusted to pH 4.0 was administered twice to the gastrocnemius muscle of the right hind paw of each rat (the day of the administration of acidic physiological saline was defined as Day 1 after the start of the experiment, and single dose administrations were carried out on Days 1 and 6 after the start of the experiment) under inhalation anesthesia with isoflurane. The thus prepared group was determined to be an acidic physiological saline group. As a control for the model, a group treated with a physiological saline instead of an acidic physiological saline was determined to be a physiological saline group.
Allodynia observed in fibromyalgia model rats was measured using a von Frey filaments according to a method described in a known publication (Chaplan et al., Journal of Neuroscience Methods, 1994, vol. 53, pp. 55-63) and a 50% response threshold (g) was determined. On Day 7 after the start of the experiment, allodynia was measured 3 hours after oral administration of Form A crystal of compound (I), and the analgesic effect was evaluated. Allodynia of the acidic physiological saline group was measured before oral administration of Form A crystal of compound (I). […] Allodynia was measured 3 hours after the oral administration of the crystal of compound (I), and the analgesic effect was evaluated. […]

[6] = tested on: spinal nerve ligation model rats (neuropathic pain model rats); assay: Analgesic effect on allodynia in spinal nerve ligation model rats (von Frey, 50% response threshold); format: in vivo, rat; settings: oral 10 mg/kg, measured 3 hours after administration, 8 days after ligation, compared to negative control group
Protocol: Analgesic effects of the crystal of compound (I) or the pharmacologically acceptable salt thereof upon neuropathic pain were evaluated using spinal nerve ligation model rats (Kim and Chung, Pain, 1992, vol. 50, p. 355). Form A crystal of compound (I) was used as a crystal of compound (I) or the pharmacologically acceptable salt thereof for evaluation.
The above model rats were prepared as follows. In experiments, 6-to 7-week-old SD male rats were used for 5 to 7 cases per group, and the lumbar skin and muscle of each rat were dissected to expose the L5 and L6 […] under inhalation anesthesia with isoflurane. After ligating the L5 and L6 spinal nerves with silk suture, the wound of each rat was sutured. Thus, a nerve ligation group was prepared. The group in which the nerve was exposed but not ligated was determined to be a sham surgery group.
Allodynia observed in spinal nerve ligation model rats was measured using a von Frey filaments according to a method described in a known publication (Chaplan et al., J. Neurosci. Methods, 1994, vol. 53, p. 55) and a 50% response threshold (g) was determined. Eight days after the ligation surgery, allodynia of the nerve ligation group was measured before oral administration of Form A crystal of compound (I). Rats with a 50% response threshold (average value of the right hind paw and the left hind paw) of 2 g to less than 6 g were considered to have developed allodynia. The rats were divided as neuropathic pain model rats into groups such that there was no significant difference in the 50% response threshold between groups. Allodynia was measured 3 hours after the oral administration of Form A crystal of compound (I), and the analgesic effect was evaluated. Pregabalin was used as a positive control.
Form A crystal of compound (I) was dissolved in water for injection (distilled water) to result in concentrations of 5, 10, and 20 mg/mL, and orally administered in a dose volume of 1 mL per kg body weight. Pregabalin was dissolved in water for injection (distilled water) to result in a concentration of 10 mg/mL and orally administered in a dose volume of 1 mL per kg of body weight. Water for injection (distilled water) was orally administered to the sham surgery group. A group in which water for injection (distilled water) was orally administered to rats in the nerve ligation group was defined as a negative control group.
The horizontal axis represents the solution to be administered in each group, namely, the nerve ligation group or sham surgery group, and the vertical axis represents the 50% response threshold (g) (mean±standard error, n=5 to 7). […]

[7] = 40° C., relative humidity 75%, 8 weeks

CN(C)C1CCN(C(=O)C[C@H](O)c2nccn2C)CC1 [Form B crystal of ethane disulfonate, (S)-1-(4-(dimethylamino)piperidin-1-yl)-3-hydroxy-3-(1-methyl-1H-imidazol-2-yl)propan-1-one]
solubility at 30 min [1]: > 100 mg/mL

CN(C)C1CCN(C(=O)C[C@H](O)c2nccn2C)CC1 [Amorphous matter, (S)-1-(4-(dimethylamino)piperidin-1-yl)-3-hydroxy-3-(1-methyl-1H-imidazol-2-yl)propan-1-one]
relative humidity at which the substance deliquesced [2]: less than 5%
Change in appearance ([2]; humidification, listed as amorphous matter): turned into oil matter
Appearance of solution ([3]; 1-Butanol, 0.02 mL added, 500 mg/mL): Soluble
Appearance of solution ([3]; 1-Propanol, 0.02 mL added, 500 mg/mL): Soluble
Appearance of solution ([3]; 2-Butanone, 0.02 mL added, 500 mg/mL): Soluble
Appearance of solution ([3]; 2-Propanol, 0.005 mL added, 2000 mg/mL): Soluble
Appearance of solution ([3]; 2-Propanol, 0.02 mL added, 500 mg/mL): Soluble
Appearance of solution ([3]; 4-Methyl-2-pentanone, 0.02 mL added, 500 mg/mL): Soluble
Appearance of solution ([3]; Acetone, 0.01 mL added, 1000 mg/mL): Soluble
Appearance of solution ([3]; Acetone, 0.02 mL added, 500 mg/mL): Soluble
Appearance of solution ([3]; Acetonitrile, 0.005 mL added, 2000 mg/mL): Soluble
Appearance of solution ([3]; Acetonitrile, 0.02 mL added, 500 mg/mL): Soluble
Appearance of solution ([3]; Chlorobenzene, 0.02 mL added, 500 mg/mL): Soluble
Appearance of solution ([3]; Chloroform, 0.005 mL added, 2000 mg/mL): Soluble
Appearance of solution ([3]; Chloroform, 0.02 mL added, 500 mg/mL): Soluble
Appearance of solution ([3]; Cyclohexane, 0.02 mL added, 500 mg/mL): Insoluble
Appearance of solution ([3]; Cyclohexane, 3 mL added, 3 mg/mL): not dissolved at all
Appearance of solution ([3]; Cyclohexane, 3 mL added, 3 mg/mL, listed as amorphous matter of compound (I)): Insoluble
Appearance of solution ([3]; Ethanol, 0.02 mL added, 500 mg/mL): Soluble
Appearance of solution ([3]; Ethyl acetate, 0.005 mL added, 2000 mg/mL): Soluble
Appearance of solution ([3]; Ethyl acetate, 0.01 mL added, 1000 mg/mL): Soluble
Appearance of solution ([3]; Ethyl acetate, 0.02 mL added, 500 mg/mL): Soluble
Appearance of solution ([3]; Ethyl formate, 0.02 mL added, 500 mg/mL): Soluble
Appearance of solution ([3]; Heptane, 0.02 mL added, 500 mg/mL): Insoluble
Appearance of solution ([3]; Heptane, 3 mL added, 3 mg/mL): not dissolved at all
Appearance of solution ([3]; Heptane, 3 mL added, 3 mg/mL, listed as amorphous matter of compound (I)): Insoluble
Appearance of solution ([3]; Isobutyl acetate, 0.02 mL added, 500 mg/mL): Soluble
Appearance of solution ([3]; Isopropyl acetate, 0.02 mL added, 500 mg/mL): Soluble
Appearance of solution ([3]; Methanol, 0.005 mL added, 2000 mg/mL): Soluble
Appearance of solution ([3]; Methanol, 0.02 mL added, 500 mg/mL): Soluble
Appearance of solution ([3]; Methyl acetate, 0.02 mL added, 500 mg/mL): Soluble
Appearance of solution ([3]; Tetrahydrofuran, 0.01 mL added, 1000 mg/mL): Soluble
Appearance of solution ([3]; Tetrahydrofuran, 0.02 mL added, 500 mg/mL): Soluble
Appearance of solution ([3]; Toluene, 0.005 mL added, 2000 mg/mL): Soluble
Appearance of solution ([3]; Toluene, 0.02 mL added, 500 mg/mL): Soluble
Appearance of solution ([3]; Water, 0.02 mL added, 500 mg/mL): Soluble
concentration at which completely dissolved ([3]; each solvent in Table 3 (text summary; cyclohexane and heptane excepted)): ≥ 500000 µg/mL
Chemical purity, After storage [4, 7]: 97.2%
Decomposition product increased by not less than 0.15% after storage [4, 7]: 4 different
Optical purity, After storage [4, 7]: 98.7 % ee
Chemical purity, After storage ([4]; 60° C., 4 weeks): 91.5%
Decomposition product increased by not less than 0.15% after storage ([4]; 60° C., 4 weeks): 7 different
Optical purity, After storage ([4]; 60° C., 4 weeks): 98.9 % ee

CC(C)C[C@H](CN)CC(=O)O [pregabalin, reference compound]
improvement of allodynia (50% response threshold) [5]: significant improvement
improvement of allodynia (50% response threshold) [6]: significant improvement
